Assay results as given in the NIST ThermoML archive (doi:10.1016/j.tca.2018.01.023).
Numbers after ± are expanded uncertainties.

Conditions: Crystal; for molar entropy: 101.33 kPa, Small sample (50 mg) DSC

## [Ca+2].[O]=[Mo](=[O])([O-])[O-] [calcium molybdate(VI)]
298.15 K
  molar entropy: 122 ± 7.8 J/K/mol
310 K
  molar entropy: 126.5 ± 8.1 J/K/mol
315 K
  molar entropy: 128.4 ± 8.2 J/K/mol
320 K
  molar entropy: 130.3 ± 8.3 J/K/mol
325 K
  molar entropy: 132.1 ± 8.4 J/K/mol
330 K
  molar entropy: 133.9 ± 8.5 J/K/mol
335 K
  molar entropy: 135.7 ± 8.6 J/K/mol
340 K
  molar entropy: 137.5 ± 8.8 J/K/mol
345 K
  molar entropy: 139.3 ± 8.9 J/K/mol
350 K
  molar entropy: 141 ± 9 J/K/mol
355 K
  molar entropy: 142.8 ± 9.1 J/K/mol
360 K
  molar entropy: 144.5 ± 9.2 J/K/mol
365 K
  molar entropy: 146.2 ± 9.3 J/K/mol
370 K
  molar entropy: 147.9 ± 9.4 J/K/mol
375 K
  molar entropy: 149.6 ± 9.5 J/K/mol
380 K
  molar entropy: 151.2 ± 9.6 J/K/mol
385 K
  molar entropy: 152.9 ± 9.7 J/K/mol
390 K
  molar entropy: 154.5 ± 9.8 J/K/mol
395 K
  molar entropy: 156.1 ± 9.9 J/K/mol
400 K
  molar entropy: 157.7 ± 10 J/K/mol
410 K
  molar entropy: 160.9 ± 10 J/K/mol
420 K
  molar entropy: 164 ± 10 J/K/mol
430 K
  molar entropy: 167.1 ± 11 J/K/mol
440 K
  molar entropy: 170.1 ± 11 J/K/mol
450 K
  molar entropy: 173.1 ± 11 J/K/mol
460 K
  molar entropy: 176 ± 11 J/K/mol
470 K
  molar entropy: 178.8 ± 11 J/K/mol
480 K
  molar entropy: 181.7 ± 12 J/K/mol
490 K
  molar entropy: 184.5 ± 12 J/K/mol
500 K
  molar entropy: 187.2 ± 12 J/K/mol
510 K
  molar entropy: 189.9 ± 12 J/K/mol
520 K
  molar entropy: 192.6 ± 12 J/K/mol
530 K
  molar entropy: 195.2 ± 12 J/K/mol
540 K
  molar entropy: 197.8 ± 13 J/K/mol
550 K
  molar entropy: 200.3 ± 13 J/K/mol
560 K
  molar entropy: 202.8 ± 13 J/K/mol
570 K
  molar entropy: 205.3 ± 13 J/K/mol
580 K
  molar entropy: 207.7 ± 13 J/K/mol
590 K
  molar entropy: 210.1 ± 13 J/K/mol
600 K
  molar entropy: 212.5 ± 14 J/K/mol
620 K
  molar entropy: 217.2 ± 14 J/K/mol
640 K
  molar entropy: 221.7 ± 14 J/K/mol
660 K
  molar entropy: 226.1 ± 14 J/K/mol
680 K
  molar entropy: 230.4 ± 15 J/K/mol
700 K
  molar entropy: 234.6 ± 15 J/K/mol
720 K
  molar entropy: 238.7 ± 15 J/K/mol
740 K
  molar entropy: 242.8 ± 16 J/K/mol
760 K
  molar entropy: 246.7 ± 16 J/K/mol
766 K
  molar entropy: 247.8 ± 16 J/K/mol
DTA
  Normal melting temperature: 1477 ± 8 °C
